In experiment [1] the target is T1, PS II (Thermosynechococcus vestitus, UniProt P0A444).
T1 construct: PS II complexes were isolated from Thermosynechococcus elongatus; from tissue; host or cells: Thermosynechococcus elongatus cells (photosynthetic membranes); method of Schatz and Witt 1984 with modifications
As to the kind of experiment: Photocurrent of PGE-PS II electrode with soluble electron mediator. The format is biochemical, Thermosynechococcus elongatus. Conditions: DMBQ 60 μM vs no mediator; +0.4 V vs Ag/AgCl; red light 660 nm, 10 s light/40 s dark. How it is done: (§1) PS II complexes were isolated from Thermosynechococcus elongatus according to methods described by Schatz and Witt (1984, Extraction and characterisation of oxygen-evolving Photosystem II complexes from a thermophilic cyanobacterium Synechococcus sp. Photobiochem. Photobiophys. 7: 1-14) with modifications.
(§2) The PS II electrode was prepared by depositing 5 μl of 1 mM isolated PS II complex preparation onto the electrode in almost complete darkness, with a weak non-actinic green light present, and dried overnight at +4° C. in darkness. A pyrolytic graphite edge (PGE) electrode with a diameter of 4.8 mm or a glassy carbon (GC) electrode with a diameter of 3 mm was used. Directly before the experiment, the surface of the electrode containing dried PS II sample was covered with a dialysis membrane (12000-14000 MW cutoff) that was held in place by o-ring.
A 50 mM stock solution of DMBQ in ethanol was prepared fresh before the experiment and used as an electron mediator for PS II in various concentrations. […]

Experiment [2] deals with T1, PS II. The experiment is described as follows: Photocurrent of GC-PS II electrode wired to hydrogenase electrode, with DCMU added. Particulars: 5 μM and 10 μM DCMU in working solution; red light 660 nm, 10 s light/40 s dark; all oxidizing potentials tested (+0.2 to +1.0 V). The experiment is classed as biochemical, Thermosynechococcus elongatus. How it is done:
as §1, §2
The photocurrent was generated by illumination of the PS II electrode by red LED (660 nm) or white LED. The following light/dark cycle was used: 10 s light, 40 s dark, unless specified otherwise.
The experiments in which the PS II electrode was tested by addition of DCMU were performed using the GC-PS II electrode, wired to a 4.8 mm diameter PGE-hydrogenase electrode. […]

The values that follow come from patent publication US20100200049A1, “BIOHYBRID SYSTEM FOR HYDROGEN PRODUCTION” (Alliance for Sustainable Energy, LLC, priority 2008, published 2010).

With `CC1=CC(=O)C=C(C)C1=O` [DMBQ, 2,6-dimethyl 1,4-benzoquinone], on PS II [1], the “effect on amplitude of photocurrent generated by the PS II electrode” value is “dramatically improved the amplitude of photocurrent”.
As to `CN(C)C(=O)Nc1ccc(Cl)c(Cl)c1` [DCMU], at PS II [2], the “effect on generation of photocurrent by the PS II electrode” value is reported as “inhibited the generation of photocurrent”.
